Laboratory results as given in ChEMBL document CHEMBL1909046, “DrugMatrix in vitro pharmacology data”.

What was measured:
[1] = biological target: Prostaglandin G/H synthase 1 (Homo sapiens, UniProt P23219); test: biochemical; format: tissue-based, Platelet;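 also: inhibition of COX-1 enzyme activity, with arachidonic acid supplied as substrate; in other assays of this panel Not Active means under 50% inhibition at 10 µM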
Estrogen receptor = biological target: T1, Estrogen receptor (Homo sapiens, UniProt P03372); settings: sf9; also: in other assays of this panel Not Active means under 50% inhibition at 10 µM
T1 sequence (P03372 whole entry): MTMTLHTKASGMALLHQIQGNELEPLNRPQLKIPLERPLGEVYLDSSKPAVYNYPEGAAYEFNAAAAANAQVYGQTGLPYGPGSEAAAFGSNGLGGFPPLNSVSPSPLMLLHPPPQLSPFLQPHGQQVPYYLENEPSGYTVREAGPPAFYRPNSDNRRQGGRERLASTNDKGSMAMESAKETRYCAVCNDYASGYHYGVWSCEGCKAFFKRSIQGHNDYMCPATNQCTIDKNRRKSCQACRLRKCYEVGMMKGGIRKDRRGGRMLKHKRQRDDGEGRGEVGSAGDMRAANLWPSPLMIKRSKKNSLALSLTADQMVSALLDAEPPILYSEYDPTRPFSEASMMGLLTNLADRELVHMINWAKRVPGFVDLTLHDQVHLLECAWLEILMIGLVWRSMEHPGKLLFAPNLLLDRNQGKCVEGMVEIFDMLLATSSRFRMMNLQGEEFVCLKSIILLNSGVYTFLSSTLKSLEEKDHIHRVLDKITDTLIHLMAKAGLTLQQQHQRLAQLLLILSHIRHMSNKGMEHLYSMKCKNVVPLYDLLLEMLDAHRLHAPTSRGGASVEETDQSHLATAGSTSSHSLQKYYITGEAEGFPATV

[2] = biological target: T2, C-X-C chemokine receptor type 1 (Homo sapiens, UniProt P25024); also: in other assays of this panel Not Active means under 50% inhibition at 10 µM
T2 sequence (P25024 whole entry): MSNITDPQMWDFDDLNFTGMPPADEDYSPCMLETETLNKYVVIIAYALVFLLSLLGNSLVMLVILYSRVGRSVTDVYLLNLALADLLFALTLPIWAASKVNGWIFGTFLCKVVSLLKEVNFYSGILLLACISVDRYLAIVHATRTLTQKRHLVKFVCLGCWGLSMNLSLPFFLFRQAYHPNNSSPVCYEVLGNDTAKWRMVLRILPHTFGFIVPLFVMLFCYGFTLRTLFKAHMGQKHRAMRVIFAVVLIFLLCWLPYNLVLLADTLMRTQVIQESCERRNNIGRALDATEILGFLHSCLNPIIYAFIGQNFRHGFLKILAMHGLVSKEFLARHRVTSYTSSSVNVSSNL

Cytochrome P450 2D6 = Cytochrome P450 2D6 (Homo sapiens, UniProt P10635); settings: bti-tn-5b1-4; also: in other assays of this panel Not Active means under 50% inhibition at 10 µM
Acetylcholinesterase = Acetylcholinesterase (Homo sapiens, UniProt P22303); test: DRUGMATRIX: Acetylcholinesterase enzyme inhibition (substrate: acetylthiocholine); format: cell-based, HEK293; settings: hek293; Not Active = under 50% inhibition at 10 µM
[3] = biological target: T3, 5-hydroxytryptamine receptor 2C (Homo sapiens, UniProt P28335); test: DRUGMATRIX: Serotonin (5-Hydroxytryptamine) 5-HT2C radioligand binding (ligand: [3H] Mesulergine); format: cell membranes, CHO-K1, Membrane; settings: cho-k1; Not Active = under 50% inhibition at 10 µM
T3 sequence (P28335 whole entry): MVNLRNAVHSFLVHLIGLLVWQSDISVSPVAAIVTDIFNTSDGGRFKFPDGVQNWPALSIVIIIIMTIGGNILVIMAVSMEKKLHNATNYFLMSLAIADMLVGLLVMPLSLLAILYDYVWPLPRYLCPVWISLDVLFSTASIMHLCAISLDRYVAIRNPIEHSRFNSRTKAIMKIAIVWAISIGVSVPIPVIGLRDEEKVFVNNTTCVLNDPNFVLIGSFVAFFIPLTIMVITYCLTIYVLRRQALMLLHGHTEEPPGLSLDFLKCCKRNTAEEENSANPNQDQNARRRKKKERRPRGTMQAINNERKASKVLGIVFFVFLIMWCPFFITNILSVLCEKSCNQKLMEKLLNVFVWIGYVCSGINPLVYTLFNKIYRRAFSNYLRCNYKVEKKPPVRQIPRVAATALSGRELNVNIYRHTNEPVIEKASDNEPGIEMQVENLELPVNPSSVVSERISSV

[4] = biological target: T4, Muscarinic acetylcholine receptor M4 (Homo sapiens, UniProt P08173); format: cell membranes, CHO-K1, Membrane; settings: cho-k1; also: in other assays of this panel Not Active means under 50% inhibition at 10 µM
T4 sequence (P08173 whole entry): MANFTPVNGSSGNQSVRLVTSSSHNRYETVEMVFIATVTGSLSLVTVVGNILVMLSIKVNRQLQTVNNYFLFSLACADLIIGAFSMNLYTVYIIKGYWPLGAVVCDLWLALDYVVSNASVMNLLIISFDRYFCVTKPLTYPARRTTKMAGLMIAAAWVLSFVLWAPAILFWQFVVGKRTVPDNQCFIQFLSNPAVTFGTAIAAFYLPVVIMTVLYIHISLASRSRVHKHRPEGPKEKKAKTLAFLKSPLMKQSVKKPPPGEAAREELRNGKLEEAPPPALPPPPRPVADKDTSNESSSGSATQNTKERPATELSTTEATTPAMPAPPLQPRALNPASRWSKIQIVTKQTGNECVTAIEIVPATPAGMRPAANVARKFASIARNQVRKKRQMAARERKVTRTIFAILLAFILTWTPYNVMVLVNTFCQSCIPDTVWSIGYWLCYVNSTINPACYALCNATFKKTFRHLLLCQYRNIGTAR

Sequence of Acetylcholinesterase (P22303 whole entry): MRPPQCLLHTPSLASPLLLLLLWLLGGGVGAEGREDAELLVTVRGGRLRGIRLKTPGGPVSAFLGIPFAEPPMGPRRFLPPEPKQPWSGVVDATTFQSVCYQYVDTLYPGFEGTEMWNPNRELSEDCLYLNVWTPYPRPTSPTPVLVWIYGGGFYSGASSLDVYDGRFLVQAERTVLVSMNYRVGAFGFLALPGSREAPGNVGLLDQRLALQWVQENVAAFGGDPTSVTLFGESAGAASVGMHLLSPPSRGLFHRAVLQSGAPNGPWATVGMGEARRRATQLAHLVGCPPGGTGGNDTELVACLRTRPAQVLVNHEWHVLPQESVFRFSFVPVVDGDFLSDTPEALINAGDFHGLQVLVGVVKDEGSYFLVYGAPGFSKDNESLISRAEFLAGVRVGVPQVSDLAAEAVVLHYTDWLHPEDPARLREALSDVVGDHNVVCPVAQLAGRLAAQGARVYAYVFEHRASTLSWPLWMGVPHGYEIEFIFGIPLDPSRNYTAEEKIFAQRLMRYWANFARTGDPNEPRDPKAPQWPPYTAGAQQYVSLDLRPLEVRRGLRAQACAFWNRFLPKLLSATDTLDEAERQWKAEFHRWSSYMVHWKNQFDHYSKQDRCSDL
Sequence of Cytochrome P450 2D6 (P10635 whole entry): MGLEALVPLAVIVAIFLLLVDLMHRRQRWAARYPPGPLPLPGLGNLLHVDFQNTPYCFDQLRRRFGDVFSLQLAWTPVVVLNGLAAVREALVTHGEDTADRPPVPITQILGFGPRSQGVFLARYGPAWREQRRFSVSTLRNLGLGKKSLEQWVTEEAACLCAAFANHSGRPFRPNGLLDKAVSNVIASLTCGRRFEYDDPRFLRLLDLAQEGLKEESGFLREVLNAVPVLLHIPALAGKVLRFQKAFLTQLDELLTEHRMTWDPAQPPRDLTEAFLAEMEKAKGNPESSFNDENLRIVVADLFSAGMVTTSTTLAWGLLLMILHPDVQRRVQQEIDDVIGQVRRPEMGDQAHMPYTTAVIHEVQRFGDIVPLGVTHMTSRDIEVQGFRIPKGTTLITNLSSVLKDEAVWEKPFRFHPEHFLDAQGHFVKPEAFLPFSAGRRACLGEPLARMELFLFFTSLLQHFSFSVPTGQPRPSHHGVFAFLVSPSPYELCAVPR
Sequence of Prostaglandin G/H synthase 1 (P23219 whole entry): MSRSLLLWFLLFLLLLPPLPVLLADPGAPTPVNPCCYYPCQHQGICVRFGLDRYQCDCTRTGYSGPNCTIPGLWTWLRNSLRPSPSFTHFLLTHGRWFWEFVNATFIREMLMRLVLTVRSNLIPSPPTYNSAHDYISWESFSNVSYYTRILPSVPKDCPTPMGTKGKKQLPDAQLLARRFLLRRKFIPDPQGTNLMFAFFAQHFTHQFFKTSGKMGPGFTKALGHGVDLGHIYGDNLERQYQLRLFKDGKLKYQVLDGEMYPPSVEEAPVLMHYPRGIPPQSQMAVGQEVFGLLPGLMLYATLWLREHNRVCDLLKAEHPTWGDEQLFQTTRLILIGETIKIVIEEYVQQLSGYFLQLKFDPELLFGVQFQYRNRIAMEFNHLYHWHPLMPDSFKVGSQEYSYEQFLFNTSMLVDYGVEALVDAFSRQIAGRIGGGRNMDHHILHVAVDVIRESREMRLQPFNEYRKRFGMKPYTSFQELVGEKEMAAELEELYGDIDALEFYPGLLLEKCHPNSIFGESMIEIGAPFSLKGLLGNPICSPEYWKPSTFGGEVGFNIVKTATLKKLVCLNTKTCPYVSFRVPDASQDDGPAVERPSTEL

Structure (SMILES)	IC50 ([1]; platelet)	IC50 (Estrogen receptor)	IC50 [2]	IC50 (Cytochrome P450 2D6)	Ki (Cytochrome P450 2D6)	IC50 (Acetylcholinesterase)	IC50 [3]	IC50 [4]	IC50 ([1]; read-out: IC50) [µM]
C[N+](C)(C)CCO.[Cl-] [CHOLINE CHLORIDE]	Not Active	Not Active	Not Active	Not Active	Not Active	Not Active	Not Active	Not Active	
CC(=O)OCC(=O)[C@@]1(O)CC[C@H]2[C@@H]3CCC4=CC(=O)CC[C@]4(C)[C@H]3C(=O)C[C@@]21C [CORTISONE ACETATE]	Not Active	Not Active	Not Active	Not Active	Not Active	Not Active	Not Active	Not Active	
O=c1ccc2ccccc2o1 [COUMARIN]	Not Active	Not Active	Not Active	Not Active	Not Active	Not Active	Not Active	Not Active	
CN(C)/N=N/c1[nH]cnc1C(N)=O [DACARBAZINE]	Not Active	Not Active	Not Active	Not Active	Not Active	Not Active	Not Active	Not Active	
COc1ccc2c(c1)[C@]13CCCC[C@@H]1[C@H](C2)N(C)CC3 [DEXTROMETHORPHAN]	Not Active	Not Active	Not Active	Not Active	Not Active	Not Active	Not Active	Not Active	
COP(=O)(OC)OC=C(Cl)Cl [DICHLORVOS]	Not Active	Not Active	Not Active	Not Active	Not Active	Not Active	Not Active	Not Active	
C[C@H]1O[C@@H](O[C@H]2[C@@H](O)C[C@H](O[C@H]3[C@@H](O)C[C@H](O[C@H]4CC[C@@]5(C)[C@H](CC[C@@H]6[C@@H]5CC[C@]5(C)[C@@H](C7=CC(=O)OC7)CC[C@]65O)C4)O[C@@H]3C)O[C@@H]2C)C[C@H](O)[C@@H]1O [DIGITOXIN]	Not Active	Not Active	Not Active	Not Active	Not Active	Not Active	Not Active	Not Active	
COc1cccc2c1C(=O)c1c(O)c3c(c(O)c1C2=O)C[C@@](O)(C(=O)CO)C[C@@H]3O[C@H]1C[C@H](N)[C@H](O)[C@H](C)O1 [DOXORUBICIN]	Not Active	Not Active	Not Active	Not Active	Not Active	Not Active	Not Active	Not Active	
COc1cccc2c1C(=O)c1c(O)c3c(c(O)c1C2=O)C[C@@](O)(C(=O)CO)C[C@@H]3O[C@H]1C[C@H](N)[C@@H](O)[C@H](C)O1 [EPIRUBICIN]	Not Active	Not Active	Not Active	Not Active	Not Active	Not Active	Not Active	Not Active	
CC1(C)O[C@@H]2C[C@H]3[C@@H]4C[C@H](F)C5=CC(=O)C=C[C@]5(C)[C@H]4[C@@H](O)C[C@]3(C)[C@]2(C(=O)CO)O1 [FLUNISOLIDE]	Not Active	Not Active	Not Active	Not Active	Not Active	Not Active	Not Active	Not Active	
CC1(C)O[C@@H]2C[C@H]3[C@@H]4C[C@H](F)C5=CC(=O)C=C[C@]5(C)[C@@]4(F)[C@@H](O)C[C@]3(C)[C@]2(C(=O)CO)O1 [FLUOCINOLONE ACETONIDE]	Not Active	Not Active	Not Active	Not Active	Not Active	Not Active	Not Active	Not Active	
CC1(C)O[C@@H]2C[C@H]3[C@@H]4C[C@H](F)C5=CC(=O)CC[C@]5(C)[C@H]4[C@@H](O)C[C@]3(C)[C@]2(C(=O)CO)O1 [FLURANDRENOLIDE]	Not Active	Not Active	Not Active	Not Active	Not Active	Not Active	Not Active	Not Active	
Cc1ccc(S(=O)(=O)NC(=O)NN2CC3CCCC3C2)cc1 (stereo not drawn) [GLICLAZIDE]	Not Active	Not Active	Not Active	Not Active	Not Active	Not Active	Not Active	Not Active	
O=S(=O)([O-])CCS.[Na+] [MESNA]	Not Active	Not Active	Not Active	Not Active	Not Active	Not Active	Not Active	Not Active	
CC(=O)Nc1cccc(O)c1 [METACETAMOL]	Not Active	Not Active	Not Active	Not Active	Not Active	Not Active	Not Active	Not Active	
Cc1ncc([N+](=O)[O-])n1CCO [METRONIDAZOLE]	Not Active	Not Active	Not Active	Not Active	Not Active	Not Active	Not Active	Not Active	
CC(C)(C(=O)c1cccnc1)c1cccnc1 [METYRAPONE]	Not Active	Not Active	Not Active	Not Active	Not Active	Not Active	Not Active	Not Active	
Oc1ccc(OCc2ccccc2)cc1 [MONOBENZONE]		Not Active	Not Active	Not Active	Not Active	Not Active	Not Active	Not Active	1.02
CC(C)(Oc1ccc(C2CCCc3ccccc32)cc1)C(=O)O (stereo not drawn) [NAFENOPIN]	Not Active	Not Active	Not Active	Not Active	Not Active	Not Active	Not Active	Not Active	
CC(C)[C@H]1CC[C@H](C(=O)N[C@H](Cc2ccccc2)C(=O)O)CC1 [NATEGLINIDE]	Not Active	Not Active	Not Active	Not Active	Not Active	Not Active	Not Active	Not Active	
CCN[C@@H]1C[C@H](N)[C@@H](O[C@H]2OC(CN)=CC[C@H]2N)[C@H](O)[C@H]1O[C@H]1OC[C@](C)(O)[C@H](NC)[C@H]1O [NETILMICIN]	Not Active	Not Active	Not Active	Not Active	Not Active	Not Active	Not Active	Not Active	
